In patent US10752624B2, “Kinase inhibitors” (Origenis GmbH, priority 2012, dated 2020):

Tests used:
SYK kinase = target: T1, SYK kinase (Homo sapiens, UniProt P43405); assay: SYK Assay (OMNIA Kinase Assay, SOX peptide fluorescence); assay type: biochemical; conditions: 1 mM ATP, 10 μM Omnia Peptide Substrate Tyr 7, 30° C., readings for 30 minutes; read-out: SYK Activities: IC50
T1 construct: purchased Invitrogen, Carlsbad
In short: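 The reaction was run at 30 °C with 1 mM ATP, 0.2 mM DTT and 10 μM Omnia Tyr 7 peptide (final) and started by adding SYK. Chelation-enhanced SOX fluorescence (ex 360/em 485 nm) was read every 30 s for 30 min. Reaction velocity versus inhibitor concentration was fitted sigmoidally for IC50.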

LRRK2 = LRRK2 (Homo sapiens, UniProt Q5S007); assay: LRRK2-LRRK2 G2019S-Assay (LanthaScreen Eu Kinase Binding Assay); conditions: 5 nM LRRK2, 10 nM tracer 236, 2 nM EU-Anti-GST antibody, 1 h at RT; read-out: LRRK2 Activities: IC50
In short: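 Compound competition with Alexa Fluor 647 tracer 236 (10 nM) was measured after 1 h at room temperature, using 5 nM LRRK2 (wild type or mutant) bound to 2 nM Eu-anti-GST antibody. IC50 was derived from the acceptor/donor (665/615 nm) ratio using a variable-slope dose-response fit.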

Sequence of LRRK2 (Q5S007 970-2527 limits assumed): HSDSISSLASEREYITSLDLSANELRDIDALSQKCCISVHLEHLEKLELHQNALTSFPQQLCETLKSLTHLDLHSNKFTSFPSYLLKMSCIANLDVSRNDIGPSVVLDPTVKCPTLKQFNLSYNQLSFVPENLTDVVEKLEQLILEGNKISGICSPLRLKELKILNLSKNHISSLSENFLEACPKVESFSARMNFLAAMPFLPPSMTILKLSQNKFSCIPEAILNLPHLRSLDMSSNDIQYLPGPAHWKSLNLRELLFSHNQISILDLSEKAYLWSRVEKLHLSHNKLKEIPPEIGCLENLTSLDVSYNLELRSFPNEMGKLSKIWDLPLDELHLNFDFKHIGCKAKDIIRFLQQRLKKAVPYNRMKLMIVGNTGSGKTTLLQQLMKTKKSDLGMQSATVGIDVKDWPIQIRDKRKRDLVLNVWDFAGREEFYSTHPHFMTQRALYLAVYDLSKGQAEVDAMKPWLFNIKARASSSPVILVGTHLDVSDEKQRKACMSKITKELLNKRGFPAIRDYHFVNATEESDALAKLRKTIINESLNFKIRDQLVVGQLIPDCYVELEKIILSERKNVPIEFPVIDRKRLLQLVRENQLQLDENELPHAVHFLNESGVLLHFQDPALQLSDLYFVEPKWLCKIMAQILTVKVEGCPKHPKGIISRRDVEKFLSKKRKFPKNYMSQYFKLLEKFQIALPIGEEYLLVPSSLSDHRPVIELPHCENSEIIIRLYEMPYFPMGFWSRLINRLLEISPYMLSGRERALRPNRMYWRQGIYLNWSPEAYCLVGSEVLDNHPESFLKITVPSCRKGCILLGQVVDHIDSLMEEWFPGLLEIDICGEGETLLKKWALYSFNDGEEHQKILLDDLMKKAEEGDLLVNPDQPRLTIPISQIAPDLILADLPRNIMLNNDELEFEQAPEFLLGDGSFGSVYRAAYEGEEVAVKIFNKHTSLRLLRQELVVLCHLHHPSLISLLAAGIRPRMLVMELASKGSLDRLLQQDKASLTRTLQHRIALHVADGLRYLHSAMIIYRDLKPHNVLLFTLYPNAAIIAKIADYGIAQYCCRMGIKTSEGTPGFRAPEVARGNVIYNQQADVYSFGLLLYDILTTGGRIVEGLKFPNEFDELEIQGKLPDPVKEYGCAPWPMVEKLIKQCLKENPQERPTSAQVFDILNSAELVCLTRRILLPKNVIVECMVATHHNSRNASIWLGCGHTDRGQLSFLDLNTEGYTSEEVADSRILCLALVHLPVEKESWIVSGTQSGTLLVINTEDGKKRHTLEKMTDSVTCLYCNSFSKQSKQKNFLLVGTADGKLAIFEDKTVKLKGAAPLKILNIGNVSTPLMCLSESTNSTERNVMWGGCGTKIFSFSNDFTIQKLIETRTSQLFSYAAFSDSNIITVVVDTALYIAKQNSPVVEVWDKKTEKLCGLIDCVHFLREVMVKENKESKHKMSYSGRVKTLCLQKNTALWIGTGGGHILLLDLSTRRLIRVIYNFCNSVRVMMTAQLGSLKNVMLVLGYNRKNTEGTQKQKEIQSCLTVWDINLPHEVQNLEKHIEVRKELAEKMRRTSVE

SMILES	IC50 (SYK kinase) [µM]	IC50 (LRRK2) [µM]
COc1nn(C(C)C)cc1Nc1nc2ccc(S(C)(=O)=O)cc2c2cn[nH]c12 [Example 226, N-(1-isopropyl-3-methoxy-1H-pyrazol-4-yl)-8-(methylsulfonyl)-3H-pyrazolo[3,4-c]quinolin-4-amine]	0.1 to 1	< 0.01
COc1c(Nc2nc3ccc(S(C)(=O)=O)cc3c3cn[nH]c23)cnn1C(C)C [Example 227, N-(1-isopropyl-5-methoxy-1H-pyrazol-4-yl)-8-(methylsulfonyl)-3H-pyrazolo[3,4-c]quinolin-4-amine]	0.1 to 1	< 0.01
COc1nn(C2CCN(C(C)(C)C)CC2)cc1Nc1nc2ccc(S(C)(=O)=O)cc2c2cn[nH]c12 [Example 228, N-(1-(1-(tert-butyl)piperidin-4-yl)-3-methoxy-1H-pyrazol-4-yl)-8-(methylsulfonyl)-3H-pyrazolo[3,4-c]quinolin-4-amine]	0.1 to 1	0.01 to 0.1
COc1c(Nc2nc3ccc(S(C)(=O)=O)cc3c3cn[nH]c23)cnn1C1CCN(C(C)(C)C)CC1 [Example 229, N-(1-(1-(tert-butyl)piperidin-4-yl)-5-methoxy-1H-pyrazol-4-yl)-8-(methylsulfonyl)-3H-pyrazolo[3,4-c]quinolin-4-amine]	0.1 to 1	0.01 to 0.1
COCCCn1cc(Nc2nc3ccc(S(C)(=O)=O)cc3c3cn[nH]c23)c(OC)n1 [Example 231, N-(3-methoxy-1-(3-methoxypropyl)-1H-pyrazol-4-yl)-8-(methylsulfonyl)-3H-pyrazolo[3,4-c]quinolin-4-amine]	0.1 to 1	0.01 to 0.1
COCCCn1ncc(Nc2nc3ccc(S(C)(=O)=O)cc3c3cn[nH]c23)c1OC [Example 232, N-(5-methoxy-1-(3-methoxypropyl)-1H-pyrazol-4-yl)-8-(methylsulfonyl)-3H-pyrazolo[3,4-c]quinolin-4-amine]	0.1 to 1	0.01 to 0.1
CC(C)n1ncc(Nc2nc3ccc(S(C)(=O)=O)cc3c3cn[nH]c23)c1Cl [Example 233, N-(5-chloro-1-isopropyl-1H-pyrazol-4-yl)-8-(methylsulfonyl)-3H-pyrazolo[3,4-c]quinolin-4-amine]	0.1 to 1	< 0.01
COc1cccc2nc(Nc3cnn(C4CCNCC4)c3)c3[nH]ncc3c12 [Example 236, 9-methoxy-N-(1-(piperidin-4-yl)-1H-pyrazol-4-yl)-3H-pyrazolo[3,4-c]quinolin-4-amine]	0.01 to 0.1	< 0.01
CC(C)n1cc(Nc2nc3ccc(S(C)(=O)=O)cc3c3cn[nH]c23)c(C#N)n1 [Example 246, 1-isopropyl-4-((8-(methylsulfonyl)-3H-pyrazolo[3,4-c]quinolin-4-yl)amino)-1H-pyrazole-3-carbonitrile]	0.1 to 1	0.01 to 0.1
CC(C)n1ncc(Nc2nc3ccc(S(C)(=O)=O)cc3c3cn[nH]c23)c1C#N [Example 247, 1-isopropyl-4-((8-(methylsulfonyl)-3H-pyrazolo[3,4-c]quinolin-4-yl)amino)-1H-pyrazole-5-carbonitrile]	0.1 to 1	< 0.01
COCCn1ncc(Nc2nc3ccc(S(C)(=O)=O)cc3c3cn[nH]c23)c1C#N [Example 249, 1-(2-methoxyethyl)-4-((8-(methylsulfonyl)-3H-pyrazolo[3,4-c]quinolin-4-yl)amino)-1H-pyrazole-5-carbonitrile]	0.1 to 1	0.01 to 0.1
COc1cccc2nc(Nc3cnn(CCF)c3)c3[nH]ncc3c12 [Example 253, N-(1-(2-fluoroethyl)-1H-pyrazol-4-yl)-9-methoxy-3H-pyrazolo[3,4-c]quinolin-4-amine]	0.1 to 1	< 0.01
COc1cccc2nc(Nc3cnn(CC(C)(C)O)c3)c3[nH]ncc3c12 [Example 256, 1-(4-((9-methoxy-3H-pyrazolo[3,4-c]quinolin-4-yl)amino)-1H-pyrazol-1-yl)-2-methylpropan-2-ol]	0.1 to 1	< 0.01
COc1cccc2nc(Nc3cnn(CC(F)(F)F)c3)c3[nH]ncc3c12 [Example 257, 9-methoxy-N-(1-(2,2,2-trifluoroethyl)-1H-pyrazol-4-yl)-3H-pyrazolo[3,4-c]quinolin-4-amine]	0.1 to 1	< 0.01
C=C(C)Cn1cc(Nc2nc3cccc(OC)c3c3cn[nH]c23)cn1 [Example 258, 9-methoxy-N-(1-(2-methylallyl)-1H-pyrazol-4-yl)-3H-pyrazolo[3,4-c]quinolin-4-amine]	0.1 to 1	< 0.01
COc1cccc2nc(Nc3cnn(C=C(C)C)c3)c3[nH]ncc3c12 [Example 259, 9-methoxy-N-(1-(2-methylprop-1-en-1-yl)-1H-pyrazol-4-yl)-3H-pyrazolo[3,4-c]quinolin-4-amine]	0.1 to 1	< 0.01
CS(=O)(=O)c1ccc2nc(Nc3cnn(CC(F)(F)F)c3)c3[nH]ncc3c2c1 [Example 261, 8-(methylsulfonyl)-N-(1-(2,2,2-trifluoroethyl)-1H-pyrazol-4-yl)-3H-pyrazolo[3,4-c]quinolin-4-amine]	0.01 to 0.1	< 0.01

SMILES	IC50 (SYK kinase) [µM]	IC50 (LRRK2) [µM]
CC(C)(O)Cn1cc(Nc2nc3ccc(S(C)(=O)=O)cc3c3cn[nH]c23)cn1 [Example 262, 2-methyl-1-(4-((8-(methylsulfonyl)-3H-pyrazolo[3,4-c]quinolin-4-yl)amino)-1H-pyrazol-1-yl)propan-2-ol]	0.01 to 0.1	< 0.01
CC(C)=Cn1cc(Nc2nc3ccc(S(C)(=O)=O)cc3c3cn[nH]c23)cn1 [Example 263, N-(1-(2-methylprop-1-en-1-yl)-1H-pyrazol-4-yl)-8-(methylsulfonyl)-3H-pyrazolo[3,4-c]quinolin-4-amine]	0.01 to 0.1	< 0.01
C=C(C)Cn1cc(Nc2nc3ccc(S(C)(=O)=O)cc3c3cn[nH]c23)cn1 [Example 264, N-(1-(2-methylallyl)-1H-pyrazol-4-yl)-8-(methylsulfonyl)-3H-pyrazolo[3,4-c]quinolin-4-amine]	0.01 to 0.1	< 0.01
COc1ccc2nc(Nc3cnn(CC(C)C)c3)c3[nH]ncc3c2c1 [Example 285, N-(1-isobutyl-1H-pyrazol-4-yl)-8-methoxy-3H-pyrazolo[3,4-c]quinolin-4-amine]	0.1 to 1	0.01 to 0.1
COc1ccc2nc(Nc3cnn(C(C)(C)C)c3)c3[nH]ncc3c2c1 [Example 286, N-(1-(tert-butyl)-1H-pyrazol-4-yl)-8-methoxy-3H-pyrazolo[3,4-c]quinolin-4-amine]	0.1 to 1	< 0.01
COCCCn1cc(Nc2nc3ccc(OC)cc3c3cn[nH]c23)cn1 [Example 287, 8-methoxy-N-(1-(3-methoxypropyl)-1H-pyrazol-4-yl)-3H-pyrazolo[3,4-c]quinolin-4-amine]	0.01 to 0.1	< 0.01
COc1cc(OC)c2nc(Nc3ccc(N4CCOCC4)cc3)c3[nH]ncc3c2c1 [Example 288, 6,8-dimethoxy-N-(4-morpholinophenyl)-3H-pyrazolo[3,4-c]quinolin-4-amine]	0.1 to 1	0.01 to 0.1
COc1cc(OC)c2nc(Nc3cnn(C4CCOCC4)c3)c3[nH]ncc3c2c1 [Example 289, 6,8-dimethoxy-N-(1-(tetrahydro-2H-pyran-4-yl)-1H-pyrazol-4-yl)-3H-pyrazolo[3,4-c]quinolin-4-amine]	0.1 to 1	0.01 to 0.1
COCCCn1cc(Nc2nc3c(OC)cc(OC)cc3c3cn[nH]c23)cn1 [Example 290, 6,8-dimethoxy-N-(1-(3-methoxypropyl)-1H-pyrazol-4-yl)-3H-pyrazolo[3,4-c]quinolin-4-amine]	0.1 to 1	0.01 to 0.1
COc1ccc2nc(Nc3cnn(C(C)C)c3)c3[nH]ncc3c2c1 [Example 292, N-(1-isopropyl-1H-pyrazol-4-yl)-8-methoxy-3H-pyrazolo[3,4-c]quinolin-4-amine]	0.01 to 0.1	0.01 to 0.1
COc1ccc2nc(Nc3cnn(C4CC4)c3)c3[nH]ncc3c2c1 [Example 293, N-(1-cyclopropyl-1H-pyrazol-4-yl)-8-methoxy-3H-pyrazolo[3,4-c]quinolin-4-amine]	0.01 to 0.1	0.01 to 0.1
COc1ccc2nc(Nc3ccc(N4CCN(CCO)CC4)cc3)c3[nH]ncc3c2c1 [Example 297, 2-(4-(4-((8-methoxy-3H-pyrazolo[3,4-c]quinolin-4-yl)amino)phenyl)piperazin-1-yl)ethan-1-ol]	0.01 to 0.1	0.01 to 0.1
COc1ccc2nc(Nc3cnn(CC(C)(C)O)c3)c3[nH]ncc3c2c1 [Example 298, 1-(4-((8-methoxy-3H-pyrazolo[3,4-c]quinolin-4-yl)amino)-1H-pyrazol-1-yl)-2-methylpropan-2-ol]	0.1 to 1	0.01 to 0.1
COc1ccc2nc(Nc3cnn(C4CCN(C(C)(C)C)CC4)c3)c3[nH]ncc3c2c1 [Example 300, N-(1-(1-(tert-butyl)piperidin-4-yl)-1H-pyrazol-4-yl)-8-methoxy-3H-pyrazolo[3,4-c]quinolin-4-amine]	0.1 to 1	0.01 to 0.1
COc1ccc2nc(Nc3cnn(C(C)(C)C#N)c3)c3[nH]ncc3c2c1 [Example 301, 2-(4-((8-methoxy-3H-pyrazolo[3,4-c]quinolin-4-yl)amino)-1H-pyrazol-1-yl)-2-methylpropanenitrile]	0.01 to 0.1	< 0.01
COc1ccc(Nc2nc3cc(S(C)(=O)=O)ccc3c3cn[nH]c23)cc1OC [Example 302, N-(3,4-dimethoxyphenyl)-7-(methylsulfonyl)-3H-pyrazolo[3,4-c]quinolin-4-amine]	0.1 to 1	0.1 to 1
